In BindingDB's records for doi:10.1021/jm500853v (University of Hawaii At Hilo, 2014):

These compounds were tested against DNA gyrase A/A/B/B tetramer (Escherichia coli (strain K12), UniProt P0AES4+P0AES6) (assay: Inhibition of Escherichia coli DNA gyrase assessed as supercoiled plasmid DNA formation after 30 mins by electrophoretic analysis).

Question: For CC[C@H](C)C(=O)c1c(O)cc(O)cc1OC/C=C(\C)CCC=C(C)C [Olympicin A], which IC50 is on record?
Answer: 500 µM

Question: For C=CCOc1ccccc1/C=C/C(=O)c1ccc(O)cc1O, which IC50 is on record?
Answer: 500 µM

Question: CC1(C)C2CC=C(/C=C/C(=O)c3ccc(O)cc3O)C1C2 (stereo not drawn) was tested. Which IC50 did it give?
Answer: 250 µM
